Source: patent US5089623A, “Certain imidate insecticides” (Imperial Chemical Industries Plc, priority 1990, dated 1992)

What was measured:
Format in all cases: in vivo
[1] = system: Tobacco Budworm [Heliothis virescens (Fabricius)]; test: Tobacco budworm contact test (TBW-C); settings: second-instar larvae, 5 days, percent in solution
Outline: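 Cotton cotyledons dipped 2–3 s in compound in 50:50 acetone–water, dried, then infested with 5 second-instar larvae and held 5 days at high humidity before scoring mortality.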

[2] = system: Maize weevil [Sitophilus Zeamais (Motschulsky)]; test: Maize weevil test (MW); settings: adult weevils, treated corn seeds, 48 hours, percent in solution
Outline: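 Adult weevils (10) were placed with four corn seeds that had been dipped 2-3 s in compound dissolved in 50:50 acetone:water, then dried, and held at about 25° C. Mortality was scored at 48 h. LC50 was taken from dosage-mortality curves and expressed as percent compound in solution, from a 0.01% top concentration.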

[3] = system: Tobacco Budworm [Heliothis virescens (Fabricius)] eggs; test: Tobacco budworm egg test (TBW-E); settings: percent in solution
[4] = system: Housefly [Musca domestica]; test: Housefly insecticidal test (HF); settings: per 25 female houseflies, 48 hours
[5] = system: Beet Armyworm (Spodoptera exigua); test: Beet armyworm test (BAW)
Description: The compounds in Tables 1 and 2 above were tested for insecticidal activity using the following testing procedures. LC50 values, based on the results of these tests and calculated according to dosage-mortality curves, are expressed in Table 3.
Beet Armyworm (Spodoptera exigua)
Test compounds were diluted in a 50-50 acetone-water solution. Young leaves of sugar beets (Beta vulgaris) were immersed in the test solutions for 2-3 seconds and placed on a wire screen to dry. The dried leaves were placed in petri dishes containing a moistened filter paper and infested with five second-instar beet armyworm larvae. The dishes were placed in a high humidity chamber. Mortality of the larvae was recorded five days later. Test concentrations ranged from 0.1% downward. The LC-50 values are expressed below in Table 3 under the heading "BAW" in terms of percent of the test compound in solution.

[6] = system: Aster Leafhopper [Macrosteles fascifrens (Stal)]; test: Aster leafhopper test (LH); settings: adults/nymphs, 48 hours, percent in solution
[7] = system: Cabbage Looper [Trichoplusia ni (Hubner)]; test: Cabbage looper test (CL); settings: second-instar larvae, 3-5 days, percent in solution
[8] = second-instar larvae, five days, percent in solution

Row | Structure (SMILES) | LC50 TBW C [1] | LC50 MW [2] | LC50 TBW E [3] | LC50 HF [4] | LC50 BAW ([5]; 120 h) | LC50 LH [6] | LC50 CL [7] | LC50 BAW [5, 8]
1 | FC(F)(F)Oc1ccc(N=C(OCc2cccc(Oc3ccccc3)c2)C2CC2)cc1 [Compound 63] | 0.001% | > 0.01% | 0.05% | 30 µg | 0.005% | 0.0001% | 0.005% | –
2 | CC(Cl)(Cl)C(=Nc1ccc(Cl)cc1)OCc1cccc(Oc2ccccc2)c1 [Compound 3] | 0.009% | > 0.01% | > 0.1% | 50 µg | – | > 0.05% | 0.012% | 0.015%
3 | CC(C)C(=Nc1ccc(F)c(F)c1F)OCc1cccc(Oc2ccc(F)cc2)c1 [Compound 348] | 0.00075% | > 0.01% | > 0.1% | 8 µg | – | 0.05% | 0.0002% | > 0.1%
4 | CC(Cl)C(=Nc1ccc(Cl)cc1)OCc1cccc(Oc2ccccc2)c1 (centres unmarked) [Compound 33] | 0.0025% | > 0.01% | > 0.1% | 17 µg | – | > 0.05% | 0.01% | 0.02%
5 | CC(C)C(=Nc1ccc2c(c1)OC(F)(F)O2)OCc1ccc(F)c(Oc2ccc(F)cc2)c1 [Compound 284] | 0.0002% | 0.0075% | – | 39 µg | – | 0.0003% | 0.00005% | 0.0025%
6 | CC1(C(=Nc2ccc(Cl)cc2)OCc2cccc(Oc3ccccc3)c2)CC1 [Compound 5] | 0.008% | > 0.01% | 0.05% | 21 µg | – | > 0.05% | 0.005% | 0.025%
7 | FC(F)(F)Oc1ccc(N=C(OCc2cccc(Oc3ccccc3)c2)C(Cl)Cl)cc1 [Compound 64] | 0.1% | > 0.01% | 0.03% | 11 µg | – | > 0.05% | 0.0025% | 0.0025%
8 | CC(C)C(=Nc1ccc(Cl)c(Cl)c1)OCc1cccc(Oc2ccccc2)c1 [Compound 9] | 0.0008% | > 0.01% | 0.02% | 14 µg | – | 0.0003% | 0.001% | 0.0005%
9 | CC(C)C(=Nc1cccc(I)c1)OCc1ccc(F)c(Oc2ccc(F)cc2)c1 [Compound 279] | 0.007% | > 0.01% | 0.016% | 4 µg | – | 0.0003% | 0.00008% | 0.0025%
10 | CC(C)C(=Nc1cccc(C(F)(F)F)c1)OCc1ccc(F)c(Oc2ccc(F)cc2)c1 [Compound 268] | 0.0005% | > 0.01% | 0.023% | 4 µg | – | 0.0005% | 0.000025% | 0.001%
11 | CC(C)C(=Nc1cc(F)cc(C(F)(F)F)c1)OCc1cccc(Oc2ccccc2)c1 [Compound 77] | 0.0004% | > 0.01% | 0.03% | 10 µg | 0.0004% | 0.0002% | 0.0005% | –
12 | CC(=Nc1ccccc1)OCc1cccc(Oc2ccccc2)c1 [Compound 42] | > 0.1% | > 0.01% | > 0.1% | 45 µg | – | > 0.05% | > 0.1% | > 0.1%
13 | FC(F)(F)c1ccc(N=C(OCc2cccc(Oc3ccccc3)c2)C(Cl)Cl)cc1 [Compound 61] | 0.03% | > 0.01% | 0.03% | 29 µg | – | > 0.05% | 0.001% | 0.002%
14 | Clc1ccc(N=C(OCc2cccc(Oc3ccccc3)c2)C(Cl)Cl)cc1 [Compound 29] | 0.001% | > 0.01% | 0.01% | 5 µg | – | 0.003% | 0.002% | 0.003%
15 | CC(C)C(=Nc1cccc(C(F)(F)F)c1)OCc1ccc(F)c(Oc2ccccc2)c1 [Compound 80] | 0.00075% | – | 0.005% | 4.5 µg | – | 0.0001% | 0.0003% | 0.0018%
16 | CC(C)C(=Nc1ccc(C(C)C)cc1)OCc1cccc(Oc2ccccc2)c1 [Compound 144] | 0.006% | > 0.01% | 0.05% | 100 µg | – | 0.0006% | 0.002% | > 0.01%
17 | CC(C)C(=Nc1ccc(OC(F)(F)F)cc1)OCc1ccc(F)c(Oc2ccc(F)c(F)c2)c1 [Compound 347] | 0.0001% | > 0.01% | > 0.1% | 30 µg | – | 0.0002% | 0.000075% | 0.00075%
18 | CC(C)C(=Nc1cccc(Cl)c1)OCc1cccc(Oc2ccc(Cl)cc2)c1 [Compound 270] | > 0.0015% | > 0.01% | > 0.01% | 12 µg | – | 0.003% | 0.00025% | 0.005%
19 | CC(C)C(=Nc1ccc2c(c1)OCO2)OCc1cccc(Oc2ccc(F)cc2)c1 [Compound 176] | 0.002% | 0.009% | 0.05% | 1.8 µg | – | > 0.05% | 0.0005% | 0.0035%
20 | ClCC(=Nc1ccc(Cl)cc1)OCc1cccc(Oc2ccccc2)c1 [Compound 31] | 0.01% | > 0.01% | > 0.1% | > 100 µg | – | > 0.05% | 0.05% | 0.08%
21 | Clc1ccc(N=C(OCc2cccc(Oc3ccccc3)c2)C2CC2)cc1 [Compound 32] | 0.006% | > 0.01% | 0.1% | 37 µg | 0.03% | > 0.05% | 0.003% | –
22 | FC(F)(F)c1ccc(N=C(OCc2cccc(Oc3ccccc3)c2)C2CC2)cc1 [Compound 62] | 0.0015% | > 0.01% | 0.025% | 20 µg | 0.02% | > 0.05% | 0.005% | –
